The compounds below were run against Factor D (Homo sapiens (Human), UniProt P00746) (assay: biochemical). Conditions: not given.
Chain of Factor D (P00746 26-253): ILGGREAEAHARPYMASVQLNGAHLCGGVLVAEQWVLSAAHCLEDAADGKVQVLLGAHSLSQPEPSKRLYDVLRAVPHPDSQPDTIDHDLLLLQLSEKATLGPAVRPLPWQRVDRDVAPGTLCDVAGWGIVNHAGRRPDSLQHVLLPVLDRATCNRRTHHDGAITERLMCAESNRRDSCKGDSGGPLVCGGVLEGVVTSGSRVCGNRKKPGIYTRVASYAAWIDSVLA
Type: biochemical
`CO[C@H]1[C@@H](C(=O)NCc2cccc(Cl)c2F)N(C(=O)Cn2cc(C(C)=O)c3ccccc32)C[C@@H]1F` [Example 505, (2S,3S,4S)-1-[2-(3-Acetyl-indol-1-yl)-acetyl]-4-fluoro-3-methoxy-pyrrolidine-2-carboxylic acid 3-chloro-2-fluoro-benzylamide] showed an IC50 of 14 nM.

Same assay, conditions: read-out: IC50
`COc1ccc2c(c1)c(C(C)=O)cn2CC(=O)N1CCCC[C@H]1C(=O)NCc1cccc(Cl)c1F` [Example 501, (S)-1-[2-(3-Acetyl-5-methoxy-indol-1-yl)-acetyl]-piperidine-2-carboxylic acid 3-chloro-2-fluoro-benzylamide] gave an IC50 of 471 nM.
`CC(=O)c1cn(CC(=O)N2C[C@](C)(F)C[C@H]2C(=O)NCc2cccc(Cl)c2F)c2ccncc12` [Example 502, (2S,4R)-1-[2-(3-Acetyl-pyrrolo[3,2-c]pyridin-1-yl)-acetyl]-4-fluoro-4-methyl-pyrrolidine-2-carboxylic acid 3-chloro-2-fluoro-benzylamide] gave an IC50 of 449 nM.
With `CC(=O)c1cn(CC(=O)N2[C@@H]3C[C@@H]3C[C@H]2C(=O)N[C@H](CCO)c2cccc(Cl)c2F)c2ccccc12` [Example 504, (1R,3S,5R)-2-[2-(3-Acetyl-indol-1-yl)-acetyl]-2-aza bicyclo[3.1.0]hexane-3-carboxylic acid [(R)-1-(3-chloro-2-fluoro-phenyl)-3-hydroxy-propyl]-amide] the IC50 was 57 nM.
`CC(=O)c1cn(CC(=O)N2C[C@H]3C[C@H]3[C@H]2C(=O)NCc2cccc(Cl)c2F)c2cnccc12` [Example 506, (1R,2S,5S)-3-[2-(3-Acetyl-pyrrolo[2,3-c]pyridin-1-yl)-acetyl]-3-aza-bicyclo[3.1.0] hexane-2-carboxylic acid 3-chloro-2-fluoro-benzylamide] showed an IC50 of 331 nM.
For `CC(=O)c1cn(CC(=O)N2C[C@H](F)C[C@H]2C(=O)NCc2cccc(Cl)c2F)c2ccccc12` [Example 507, (2S,4R)-1-[2-(3-Acetyl-indol-1-yl)-acetyl]-4-fluoro-pyrrolidine-2-carboxylic acid 3-chloro-2-fluoro-benzylamide], the IC50 was 16 nM.
Work on `CC(=O)c1cn(CC(=O)N2C[C@H](F)C[C@H]2C(=O)NCc2cccc(Cl)c2F)c2ccc(OCc3ccccc3)cc12` [Example 508, (2S,4R)-1-[2-(3-Acetyl-5-benzyloxy-indol-1-yl)-acetyl]-4-fluoro-pyrrolidine-2-carboxylic acid 3-chloro-2-fluoro-benzylamide] yielded an IC50 of 12 nM.
`CC(=O)c1cn(CC(=O)N2C[C@H](F)C[C@H]2C(=O)NCc2cccc(Cl)c2F)c2cc(OC(F)(F)F)ccc12` [Example 509, (2S,4R)-1-[2-(3-Acetyl-6-trifluoromethoxy-indol-1-yl)-acetyl]-4-fluoro-pyrrolidine-2-carboxylic acid 3-chloro-2-fluoro-benzylamide] showed an IC50 of 58 nM.
Work on `CC(=O)c1cn(CC(=O)N2[C@@H]3C[C@@H]3C[C@H]2C(=O)NCc2cccc(Cl)c2F)c2ccccc12` [Example 510, (1R,3S,5R)-2-[2-(3-Acetyl-indol-1-yl)-acetyl]-2-aza-bicyclo[3.1.0]hexane-3-carboxylic acid 3-chloro-2-fluoro-benzylamide] yielded an IC50 of 16 nM.
`CC(=O)c1cn(CC(=O)N2C[C@](C)(F)C[C@H]2C(=O)NCc2cccc(Cl)c2F)c2ccccc12` [Example 511, (2S,4R)-1-[2-(3-Acetyl-indol-1-yl)-acetyl]-4-fluoro-4-methyl-pyrrolidine-2-carboxylic acid 3-chloro-2-fluoro-benzylamide] showed an IC50 of 71 nM.
`CC(=O)c1cn(CC(=O)N2[C@@H]3CC[C@@H](C3)[C@H]2C(=O)NCc2cccc(Cl)c2F)c2ccccc12` [Example 512, (1R,3S,4S)-2-[2-(3-Acetyl-indol-1-yl)-acetyl]-2-aza-bicyclo[2.2.1]heptane-3-carboxylic acid 3-chloro-2-fluoro-benzylamide] showed an IC50 of 411 nM.
Work on `CC(=O)c1cn(CC(=O)N2CCS[C@H]2C(=O)NCc2cccc(Cl)c2F)c2ncccc12` [Example 513, (S)-3-[2-(3-Acetyl-pyrrolo[2,3-b]pyridin-1-yl)-acetyl]-thiazolidine-2-carboxylic acid 3-chloro-2-fluoro-benzylamide] yielded an IC50 of 193 nM.
`CC(=O)c1cn(CC(=O)N2C[C@H](F)C[C@H]2C(=O)Nc2cccc(OC(F)(F)F)c2F)c2ccccc12` [Example 514, (2S,4R)-1-[2-(3-Actyl-indol-1-yl)-acetyl]-4-fluoro-pyrrolidine-2-carboxylic acid (2-fluoro-3-trifluoromethoxy-phenyl)-amide] showed an IC50 of 95 nM.
`CC(=O)c1cn(CC(=O)N2[C@@H]3C[C@@H]3C[C@H]2C(=O)Nc2cc(Br)cc(-c3nnn[nH]3)c2)c2ccccc12` [Example 515, (1R,3S,5R)-2-[2-(3-Acetyl-indol-1-yl)-acetyl]-2-aza-bicyclo[3.1.0]hexane-3-carboxylic acid [3-bromo-5-(2H-tetrazol-5-yl)-phenyl]-amide] was tested, and the IC50 was 268 nM.
Work on `CC(=O)c1cn(CC(=O)N2C[C@H](F)C[C@H]2C(=O)NCc2cccc(Br)c2F)c2ccccc12` [Example 516, (2S,4R)-1-[2-(3-Acetyl-indol-1-yl)-acetyl]-4-fluoro-pyrrolidine-2-carboxylic acid 3-bromo-2-fluoro-benzyl amide] yielded an IC50 of 8 nM.
With `NC(=O)c1cn(CC(=O)N2C[C@H](F)C[C@H]2C(=O)Nc2cccc(C(F)(F)F)c2F)c2ccccc12` [Example 517, 1-{2-[(2S,4R)-4-Fluoro-2-(2-fluoro-3-trifluoromethyl-phenylcarbamoyl)-pyrrolidin-1-yl]-2-oxo-ethyl}-1H-indole-3-carboxylic acid amide] the IC50 was 1460 nM.
In the case of `CC(=O)c1cn(CC(=O)N2C[C@H](F)C[C@H]2C(=O)N[C@H](CO)c2cccc(Cl)c2F)c2ccccc12` [Example 518, (2S,4R)-1-[2-(3-Acetyl-indol-1-yl)-acetyl]-4-fluoro-pyrrolidine-2-carboxylic acid [(S)-1-(3-chloro-2-fluoro-phenyl)-2-hydroxy-ethyl]-amide], the IC50 is reported as 41 nM.
For `CNC(=O)c1cn(CC(=O)N2C[C@H](F)C[C@H]2C(=O)NCc2cccc(Cl)c2F)c2ccccc12` [Example 519, 1-{2-[(2S,4R)-2-(3-Chloro-2-fluoro-benzylcarbamoyl)-4-fluoro-pyrrolidin-1-yl]-2-oxo-ethyl}-1H-indole-3-carboxylic acid methylamide], the IC50 was 722 nM.
Work on `CO[C@H]1[C@@H](C(=O)NCc2cccc(Cl)c2F)N(C(=O)Cn2cc(C(C)=O)c3cccnc32)C[C@@H]1F` [Example 520, (2S,3S,4S)-1-[2-(3-Acetyl-pyrrolo[2,3-b]pyridin-1-yl)-acetyl]-4-fluoro-3-methoxy-pyrrolidine-2-carboxylic acid 3-chloro-2-fluoro-benzylamide] yielded an IC50 of 22 nM.
`CC(=O)c1cn(CC(=O)N2C[C@H](F)C[C@H]2C(=O)NCc2cc(-c3nnn[nH]3)cc(Cl)c2F)c2ccccc12` [Example 521, (2S,4R)-1-[2-(3-Acetyl-indol-1-yl)-acetyl]-4-fluoro-pyrrolidine-2-carboxylic acid 3-chloro-2-fluoro-5-(1H-tetrazol-5-yl)-benzylamide] gave an IC50 of 37 nM.
`CC(=O)c1cn(CC(=O)N2[C@@H]3C[C@@H]3C[C@H]2C(=O)N[C@H](CN(C)C)c2cccc(Cl)c2F)c2ccccc12` [Example 522, (1R,3S,5R)-2-[2-(3-Acetyl-indol-1-yl)-acetyl]-2-aza-bicyclo[3.1.0]hexane-3-carboxylic acid [(S)-1-(3-chloro-2-fluoro-phenyl)-2-dimethylamino-ethyl]-amide] gave an IC50 of 415 nM.
Work on `CC(=O)c1cn(CC(=O)N2[C@@H]3C[C@@H]3C[C@H]2C(=O)NCc2cccc(Cl)c2F)c2ccncc12` [Example 524, (1R,3S,5R)-2-[2-(3-Acetyl-pyrrolo[3,2-c]pyridin-1-yl)-acetyl]-2-aza-bicyclo[3.1.0]hexane-3-carboxylic acid 3-chloro-2-fluoro-benzylamide] yielded an IC50 of 64 nM.
`CC(=O)c1cn(CC(=O)N2[C@@H]3C[C@@H]3C[C@H]2C(=O)NCc2cc(-c3nnn[nH]3)cc(Cl)c2F)c2ccccc12` [Example 525, (1R,3S,5R)-2-[2-(3-Acetyl-indol-1-yl)-acetyl]-2-aza-bicyclo[3.1.0]hexane-3-carboxylic acid 3-chloro-2-fluoro-5-(1H-tetrazol-5-yl)-benzylamide] was tested, and the IC50 was 36 nM.
`COC(=O)c1ccc2c(C(C)=O)cn(CC(=O)N3[C@@H]4C[C@@H]4C[C@H]3C(=O)NCc3cccc(Cl)c3F)c2c1` [Example 526, 3-Acetyl-1-{2-[(1R,3S,5R)-3-(3-chloro-2-fluoro-benzylcarbamoyl)-2-aza-bicyclo[3.1.0]hex-2-yl]-2-oxo-ethyl}-1H-indole-6-carboxylic acid methyl ester] gave an IC50 of 54 nM.
In the case of `CC(=O)c1cn(CC(=O)N2[C@@H]3C[C@@H]3C[C@H]2C(=O)NCc2cc(C#N)cc(Cl)c2F)c2ccccc12` [Example 527, (1R,3S,5R)-2-[2-(3-Acetyl-indol-1-yl)-acetyl]-2-aza-bicyclo[3.1.0]hexane-3-carboxylic acid 3-chloro-5-cyano-2-fluoro-benzylamide], the IC50 is reported as 483 nM.
For `NC(=O)c1cn(CC(=O)N2C[C@H](F)C[C@H]2C(=O)NCc2cccc(Cl)c2F)c2cc(OC(F)F)ccc12` [Example 528, 1-{2-[(2S,4R)-2-(3-Chloro-2-fluoro-benzylcarbamoyl)-4-fluoro-pyrrolidin-1-yl]-2-oxo-ethyl}-6-difluoromethoxy-1H-indole-3-carboxylic acid amide], the IC50 was 75 nM.
With `CC(=O)c1cn(CC(=O)N2C[C@](C)(F)C[C@H]2C(=O)NCc2cccc(Cl)c2F)c2ncccc12` [Example 530, (2S,4R)-1-[2-(3-Acetyl-pyrrolo[2,3-b]pyridin-1-yl)-acetyl]-4-fluoro-4-methyl-pyrrolidine-2-carboxylic acid 3-chloro-2-fluoro-benzylamide] the IC50 was 72 nM.
Work on `CC(=O)c1cn(CC(=O)N2C[C@H](F)C[C@H]2C(=O)NCc2cccc(Cl)c2F)c2cc(Cl)ccc12` [Example 531, (2S,4R)-1-[2-(3-Acetyl-6-chloro-indol-1-yl)-acetyl]-4-fluoro-pyrrolidine-2-carboxylic acid 3-chloro-2-fluoro-benzylamide] yielded an IC50 of 11 nM.
`CC(=O)c1cn(CC(=O)N2[C@@H]3C[C@@H]3C[C@H]2C(=O)NCc2cccc(Cl)c2F)c2nc(C#N)ccc12` [Example 532, (1R,3S,5R)-2-[2-(3-Acetyl-6-cyano-pyrrolo[2,3-b]pyridin-1-yl)-acetyl]-2-aza-bicyclo[3.1.0] hexane-3-carboxylic acid 3-chloro-2-fluoro-benzylamide] showed an IC50 of 223 nM.
